According to patent US8614324B2, “Filamin A binding anti-inflammatory and analgesic” (priority 2008, dated 2013):

How the values were obtained:
mu opiate receptor (MOR) = target: T1, mu opiate receptor (MOR) (Rattus norvegicus, UniProt P33535); assay: MOR agonist activity, [35S]GTPγS binding assay using striatal membranes; assay type: biochemical; parameters: MOR agonist activity, [35S]GTPγS binding to Gαo: reference not given here; conditions: for % DAMGO (0.1 μM): 0.1 μM compound relative to DAMGO; for % DAMGO + BFNA: 1 μM compound + BFNA relative to DAMGO + BFNA; for % DAMGO (1 μM): 1 μM compound relative to DAMGO
T1 construct: from tissue; host or cells: striatal membrane preparation (rat striatum)
Procedure: To assess the mu opiate receptor (MOR) agonist activity of positive compounds from the FLNA screening, compounds were tested in a [^35S]GTPγS binding assay using striatal membranes.
Striatal tissue was homogenized in 10 volumes of ice cold 25 mM HEPES buffer, pH 7.4, which contained 1 mM EGTA, 100 mM sucrose, 50 μg/ml leupeptin, 0.04 mM PMSF, 2 μg/ml soybean trypsin inhibitor and 0.2% 2-mercaptoethanol. The homogenates were centrifuged at 800×g for 5 minutes and the supernatants were centrifuged at 49,000×g for 20 minutes. The resulting pellets were suspended in 10 volume of reaction buffer, which contained 25 mM HEPES, pH 7.5, 100 mM NaCl, 50 μg/ml leupeptin, 2 μg/ml soybean trypsin inhibitor, 0.04 mM PMSF and 0.02% […].
The resultant striatal membrane preparation (200 μg) was admixed and maintained (incubated) at 30° C. for 5 minutes in reaction buffer as above that additionally contained 1 mM MgCl2 and 0.5 nM [^35S]GTPγS (0.1 μCi/assay, PerkinElmer Life and Analytical Sciences) in a total volume of 250 μl and continued for 5 minutes in the absence or presence of 0.1-10 μM of an assayed compound of interest. The reaction was terminated by dilution with 750 μl of ice-cold reaction buffer that contained 20 mM MgCl2 and 1 mM EGTA and immediate centrifugation at 16,000×g for 5 minutes.
The resulting pellet was solubilized by sonicating for 10 seconds in 0.5 ml of immunoprecipitation buffer containing 0.5% digitonin, 0.2% sodium cholate and 0.5% NP-40. Normal rabbit serum (1 μl) was added to 1 ml of lysate and incubated at 25° C. for 30 minutes. Nonspecific immune complexes were removed by incubation with 25 μl of protein A/G-conjugated agarose beads at 25° C. for 30 minutes followed by centrifugation at 5,000×g at 4° C. for 5 minutes. The supernatant was divided and separately incubated at 25° C. for 30 minutes with antibodies raised against Gαo proteins (1:1,000 dilutions).
The immunocomplexes so formed were collected by incubation at 25° C. for 30 minutes with 40 μl of agarose-conjugated protein A/G beads and centrifugation at 5,000×g at 4° C. for 5 minutes. The pellet was washed and suspended in buffer containing 50 mM Tris-HCl, pH 8.0, and 1% NP-40. The radioactivity in the suspension was determined by liquid scintillation spectrometry. […] DAMGO (H-Tyr-D-Ala-Gly-N-MePhe-Gly-OH; 1 or 10 μM) was used as a positive control.

[1] = target: Bn-VAKGL pentapeptide of filamin A (FLNA) (Homo sapiens, UniProt P21333); assay: FITC-NLX-based FLNA screening assay (FLNA peptide binding assay); conditions: 10 nM FITC-NLX
Procedure: The final assay volume is 100 μl.
Compounds are tested in triplicate or quadruplicate.

[2] = test system: IL-6 release from primary human astrocytes; assay: LPS-induced cytokine release from primary human astrocytes, IL-6; assay type: cell-based
Procedure: (§1) The following study was undertaken to investigate whether contemplated compounds and (+)NLX affect LPS-induced release of the pro-inflammatory cytokine (IL-1β, IL-6 and TNF-α) release from primary human astrocytes. […]
(§2) Primary astrocytes culture was prepared according to the provider's instructions (Lonza). The adherent astrocytes were trypsinized by 0.25% trypsin-EDTA, then collected and sub-cultured in 12-well plate (1.2 ml/well). […] Vehicle groups were pretreated with 0.1% DMSO only. Following addition of LPS, incubation continued for 24 hours. Culture medium was used as the blank and the levels of cytokines, TNF-α, IL-6 and IL-1β in 200 μl of culture medium were determined. Each well was sampled twice.
(§3) Plates were washed 3 times with ice-cold 50 mM Tris HCl (pH 7.4) and incubated at 30° C. with 200 μl medium derived from the above mentioned conditions. Plates were washed 3 times with ice-cold 50 mM Tris HCl (pH 7.4) and incubated at 30° C. with 0.5 μg/well un-conjugated rabbit anti-anti-INF-α, -IL-6 and -IL-1β for 1 hour. After two 1 minute washes with 50 mM Tris HCl (pH 7.4), each well was incubated in 0.5 μg/well FITC-conjugated anti-rabbit IgG (human and mouse absorbed) for 1 hour at 30° C. Plates were washed twice with 200 μl ice-cold Tris HCl, pH 7.4 and the residual […] signals were determined by multimode plate reader, DTX880 (Beckman).

[3] = test system: IL-1β release from primary human astrocytes; assay: LPS-induced cytokine release from primary human astrocytes, IL-1β; assay type: cell-based
Procedure: as §1, §2, §3

[4] = test system: TNF-α release from primary human astrocytes; assay: LPS-induced cytokine release from primary human astrocytes, TNF-α; assay type: cell-based
Procedure: as §1, §2, §3

[5] = Mouse hot-water tail-flick test; assay type: in vivo; conditions: orally administered, 56 mg/kg
Procedure: The mouse “tail flick” test was used to assay the relative antinociceptive activity of compositions containing a compound to be assayed. This assay was substantially that disclosed by Xie et al., 2005 J. Neurosci 25:409-416.
The mouse hot-water tail-flick test was performed by placing the distal third of the tail in a water bath maintained at 52° C. The latency until tail withdrawal from the bath was determined and compared among the treatments. A 10 second cutoff was used to avoid tissue damage. Data are converted to percentage of antinociception by the following formula: (response latency−baseline latency)/(cutoff−baseline latency)×100 to generate dose-response curves. […] Relative potency was determined as a ratio of the A50 values.
To assess tolerance to the antinociceptive effect, the compound was administered twice daily for 7 days at an A90 dose (dose that results in a 90% antinociceptive effect in the 52° C. warm-water tail-flick test), and the tail-flick test was performed daily after the a.m. dose. […] Assays were typically carried out separately using at least 32 and 56 mg/kg dosages, with some assays also separately carried out at 18 and 100 mg/kg.

[6] = 0.1 μM compound, striatal membranes
[7] = 1 μM compound + BFNA (1 μM β-funaltrexamine)
[8] = 1 μM compound, striatal membranes
[9] = 10 pM compound 2 hours prior to LPS (1 μg/ml) and continued 24 hours
[10] = 1 nM compound 2 hours prior to LPS (1 μg/ml) and continued 24 hours
[11] = 100 nM compound 2 hours prior to LPS (1 μg/ml) and continued 24 hours
[12] = 100 fM compound 2 hours prior to LPS (1 μg/ml) and continued 24 hours

T1 sequence (P33535 whole entry): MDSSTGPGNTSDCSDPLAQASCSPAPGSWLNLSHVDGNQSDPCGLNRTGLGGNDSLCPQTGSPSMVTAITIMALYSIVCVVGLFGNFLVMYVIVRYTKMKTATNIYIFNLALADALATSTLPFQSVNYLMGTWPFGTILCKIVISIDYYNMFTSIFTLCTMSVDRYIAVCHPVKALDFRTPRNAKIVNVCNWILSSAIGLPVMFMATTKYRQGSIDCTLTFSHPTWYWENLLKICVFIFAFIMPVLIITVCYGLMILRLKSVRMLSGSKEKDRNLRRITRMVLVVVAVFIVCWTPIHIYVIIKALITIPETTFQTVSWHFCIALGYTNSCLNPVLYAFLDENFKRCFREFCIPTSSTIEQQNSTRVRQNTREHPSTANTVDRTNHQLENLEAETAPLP

O=[N+]([O-])c1ccc(S(=O)(=O)N2CCC3(CC2)NCCCO3)cc1 [Compound C0045]
% DAMGO (0.1 μM) (mu opiate receptor (MOR)): 88.3%
MOR agonist activity, [35S]GTPγS binding to Gαo (mu opiate receptor (MOR); [6]): 149.2%
MOR agonist activity, [35S]GTPγS binding to Gαo (mu opiate receptor (MOR); [7]): 105.3%
% DAMGO + BFNA (mu opiate receptor (MOR)): 634.3%
% DAMGO (1 μM) (mu opiate receptor (MOR)): 109.1%
MOR agonist activity, [35S]GTPγS binding to Gαo (mu opiate receptor (MOR); [8]): 238.8%
Percent inhibition of FITC-NLX binding ([1]; 0.01 μM compound): 39.1%
Percent inhibition of FITC-NLX binding ([1]; 0.1 μM compound): 48.9%
Percent inhibition of FITC-NLX binding ([1]; 1 μM compound): 53.7%

COc1ccc(S(=O)(=O)N2CCOC23CCN(C(=O)OC(C)(C)C)CC3)cc1 [Compound C0043]
% DAMGO (0.1 μM) (mu opiate receptor (MOR)): 103.8%
MOR agonist activity, [35S]GTPγS binding to Gαo (mu opiate receptor (MOR); [6]): 175.4%
MOR agonist activity, [35S]GTPγS binding to Gαo (mu opiate receptor (MOR); [7]): 83.3%
% DAMGO + BFNA (mu opiate receptor (MOR)): 501.8%
% DAMGO (1 μM) (mu opiate receptor (MOR)): 110.9%
MOR agonist activity, [35S]GTPγS binding to Gαo (mu opiate receptor (MOR); [8]): 242.6%
Percent inhibition of FITC-NLX binding ([1]; 0.01 μM compound): 43.9%
Percent inhibition of FITC-NLX binding ([1]; 0.1 μM compound): 51.3%
Percent inhibition of FITC-NLX binding ([1]; 1 μM compound): 58.0%

CS(=O)(=O)c1ccc(S(=O)(=O)N2CCOC23CCNCC3)cc1 [Compound C0116M]
MOR agonist activity, [35S]GTPγS binding to Gαo (mu opiate receptor (MOR); [6]): 258.4%
MOR agonist activity, [35S]GTPγS binding to Gαo (mu opiate receptor (MOR); [7]): 152.0%
MOR agonist activity, [35S]GTPγS binding to Gαo (mu opiate receptor (MOR); [8]): 302.8%

O=S(=O)(c1ccc(F)cc1)N1CCOC12CCN(CC1CC1)CC2 [F-C0134]
IL-6 Average % (±SEM) [2, 9]: 78.8 (1.5) %
IL-6 Average % (±SEM) [2, 10]: 78.2 (1.8) %
IL-6 Average % (±SEM) [2, 11]: 76.3 (2.8) %
IL-6 Average % (±SEM) [2, 12]: 81.3 (2.4) %
IL-1β Average % (±SEM) [3, 9]: 78.0 (5.5) %
IL-1β Average % (±SEM) [3, 10]: 77.7 (2.9) %
IL-1β Average % (±SEM) [3, 11]: 73.2 (3.9) %
IL-1β Average % (±SEM) [3, 12]: 73.3 (5.3) %
TNF-α Average % (±SEM) [4, 9]: 75.7 (1.8) %
TNF-α Average % (±SEM) [4, 10]: 77.4 (4.2) %
TNF-α Average % (±SEM) [4, 11]: 75.4 (1.6) %
TNF-α Average % (±SEM) [4, 12]: 77.0 (2.8) %
Maximum Antinociception (%) [5]: 93%
Time to Max. [5]: 20 min

COc1ccc(S(=O)(=O)N2CCC3(CC2)NCCC(=O)N3)cc1 [Compound C0142M]
MOR agonist activity, [35S]GTPγS binding to Gαo (mu opiate receptor (MOR); [6]): 143.7%
MOR agonist activity, [35S]GTPγS binding to Gαo (mu opiate receptor (MOR); [7]): 98.7%
MOR agonist activity, [35S]GTPγS binding to Gαo (mu opiate receptor (MOR); [8]): 192.5%

COc1ccc(S(=O)(=O)N2CCOC23CCNCC3)cc1 [Compound C0027]
MOR agonist activity, [35S]GTPγS binding to Gαo (mu opiate receptor (MOR); [6]): 233.2%
MOR agonist activity, [35S]GTPγS binding to Gαo (mu opiate receptor (MOR); [7]): 72.2%
MOR agonist activity, [35S]GTPγS binding to Gαo (mu opiate receptor (MOR); [8]): 313.9%

CCc1ccc(S(=O)(=O)N2CCOC23CCN(CC2CC2)CC3)cc1 [Compound C0135M]
MOR agonist activity, [35S]GTPγS binding to Gαo (mu opiate receptor (MOR); [6]): 161.3%
MOR agonist activity, [35S]GTPγS binding to Gαo (mu opiate receptor (MOR); [7]): 113.3%
MOR agonist activity, [35S]GTPγS binding to Gαo (mu opiate receptor (MOR); [8]): 310.1%

CC(=O)N1CCSC12CCN(S(=O)(=O)c1ccc([N+](=O)[O-])cc1)CC2 [Compound C0050]
MOR agonist activity, [35S]GTPγS binding to Gαo (mu opiate receptor (MOR); [6]): 110.3%
MOR agonist activity, [35S]GTPγS binding to Gαo (mu opiate receptor (MOR); [7]): 59.0%
MOR agonist activity, [35S]GTPγS binding to Gαo (mu opiate receptor (MOR); [8]): 127.6%
